Here are results for 29 compounds from patent publication US8916555B2, “3,5-diaminopyrazole kinase inhibitors” (Axikin Pharmaceuticals, Inc., priority 2012, dated 2014).

The term inhibition denotes the change of the read-out against control, counted positive when it falls. Low readings indicate a response near the control, high ones a response far below the control. A word on the melting point: it is the temperature, or range, at which the solid turns liquid.

Each structure is given as a SMILES string. Where only a bound is given, the exact number is not on record here.

The target in data set [1] is T1, kinase domain protein of RC kinase (Homo sapiens, UniProt Q56UN5).
T1 sequence (Q56UN5 1061-1324 limits assumed): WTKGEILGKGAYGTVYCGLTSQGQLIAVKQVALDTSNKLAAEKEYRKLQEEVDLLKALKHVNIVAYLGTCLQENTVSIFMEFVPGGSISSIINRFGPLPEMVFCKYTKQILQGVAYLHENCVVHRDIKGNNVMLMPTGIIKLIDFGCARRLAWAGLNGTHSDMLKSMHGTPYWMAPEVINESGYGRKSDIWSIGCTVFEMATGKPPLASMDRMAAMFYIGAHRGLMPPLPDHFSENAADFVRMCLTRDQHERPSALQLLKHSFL
As to the kind of experiment: Enzymatic assay for kinase inhibitory activity (Crebtide substrate, LANCE readout), kinase domain protein. The following applies: test compound 1 μM, ATP 1 μM, Crebtide 50 nM. It is filed as biochemical. Here is the method: Solutions of a test compound, Crebtide (a substrate), a kinase, and ATP were prepared using 1×MAPK Buffer (50 mM HEPES, 1 mM EGTA, […], 10 mM MgCl2, 2 mM DTT, and 0.01% Tween 20).
To each well, the test compound (1 μL) was first added (in duplicate) to reach a final concentration of 1 μM or 1×IC50 of the compound. The kinase (5 μL) was then added to each well to reach a final concentration of […] for the kinase domain or […] for the full-length domain. Each plate included a positive and negative controls in duplicate wells. Crebtide (2.5 μL) was then added to each well in duplicate to reach a final concentration of 50 nM. If the full-length kinase was used, the plates were incubated for 45 min at room temperature before proceeding further. ATP (2.5 μL) was added to each well to reach a final concentration of 1 μM for the kinase domain and 3 μM for the full-length.
After the addition of ATP, the plates were incubated for 45 min at room temperature. During the incubation, an EDTA solution (40 mM) and anti-Crebtide ([…]) were prepared. Additionally, a detection buffer stock solution was diluted ten fold before use.
After the incubation, the anti-Crebtide (5 μL) and EDTA (5 μL) were added to each well to reach their final concentrations of […] and 10 mM, respectively. The plates were allowed to develop at room temperature for 45 min. The plates were then read at 665 nm and 615 nm using Perkin Elmer Lance machine.
The biological results of inhibition of the kinase domain protein of RC kinase are summarized in Tables 2 and 3, wherein A represents at least 50% inhibition of the RC kinase activity at 1 μM; B represents no greater than 50% but at least 20% inhibition of the RC kinase activity at 1 μM; C represents no greater than 20% but at least 5% inhibition of the RC kinase activity at 1 μM; and D represents no greater than 5% inhibition of the RC kinase activity at 1 μM.

With `CN(C)c1ccc(CNc2[nH]nc(Nc3cccnc3)c2C(N)=O)c2ccccc12` [Compound D42, 5-(((4-(dimethylamino)naphthalen-1-yl)methyl)amino)-3-(pyridin-3-ylamino)-1H-pyrazole-4-carboxamide], the melting point is 225 to 229 °C. Further, in data set [1], the inhibition at 1 µM is 20 to 50%.
The matching figures for `CCOc1ccc2ccccc2c1CNc1[nH]nc(Nc2cccnc2)c1C(N)=O` [Compound D43, 5-(((2-ethoxynaphthalen-1-yl)methyl)amino)-3-(pyridin-3-ylamino)-1H-pyrazole-4-carboxamide]: 231 to 236 °C and 20 to 50%.
On the same counts, the results for `COc1cc(OC)c(OC)cc1CNc1[nH]nc(Nc2cccnc2)c1C(N)=O` [Compound D46, 3-(pyridin-3-ylamino)-5-((2,4,5-trimethoxybenzyl)amino)-1H-pyrazole-4-carboxamide] are 197 to 202 °C and 5 to 20%.
The matching figures for `NC(=O)c1c(Nc2cccnc2)n[nH]c1NCc1ccc[nH]1` [Compound D53, 5-(((1H-pyrrol-2-yl)methyl)amino)-3-(pyridin-3-ylamino)-1H-pyrazole-4-carboxamide]: 201 to 206 °C and 5 to 20%.
For the compound `NC(=O)c1c(Nc2cccc(Cl)c2)n[nH]c1NCc1ccc[nH]1` [Compound D59], the melting point was in the range of 193 to 198 °C. Also, the inhibition at 1 µM in data set [1] was in the range of 5 to 20%.
The matching figures for `NC(=O)c1c(Nc2ccc(-n3ccnc3)cc2)n[nH]c1NCc1ccc(O)cc1` [Compound D60]: 228 to 231 °C and not below 50%.
The matching figures for `Cc1ccc(Nc2n[nH]c(NCc3ccc(O)cc3)c2C(N)=O)cc1` [Compound D61, 5-((4-hydroxybenzyl)amino)-3-(p-tolylamino)-1H-pyrazole-4-carboxamide]: 169 to 174 °C and not below 50%.
Consider `CC(=O)c1ccc(Nc2n[nH]c(NCc3ccc(O)cc3)c2C(N)=O)cc1` [Compound D62, 3-((4-acetylphenyl)amino)-5-((4-hydroxybenzyl)amino)-1H-pyrazole-4-carboxamide], for which the melting point is 167 to 172 °C. This compound also gave an inhibition at 1 µM in data set [1] not below 50%.
The matching figures for `NC(=O)c1ccc(Nc2n[nH]c(NCc3ccc(O)cc3)c2C(N)=O)cc1` [Compound D63, 3-((4-carbamoylphenyl)amino)-5-((4-hydroxybenzyl)amino)-1H-pyrazole-4-carboxamide]: 225 to 230 °C and not below 50%.
The matching figures for `N#CCc1ccc(Nc2n[nH]c(NCc3ccc(O)cc3)c2C(N)=O)cc1` [Compound D64, 3-((4-(cyanomethyl)phenyl)amino)-5-((4-hydroxybenzyl)amino)-1H-pyrazole-4-carboxamide]: 200 to 203 °C and not below 50%.
The matching figures for `COc1cccc(Nc2n[nH]c(NCc3ccc(O)cc3)c2C(N)=O)c1` [Compound D65, 5-((4-hydroxybenzyl)amino)-3-((3-methoxyphenyl)amino)-1H-pyrazole-4-carboxamide]: 177 to 180 °C and not below 50%.
On to `N#Cc1cccc(Nc2n[nH]c(NCc3ccc(O)cc3)c2C(N)=O)c1` [Compound D66, 3-((3-cyanophenyl)amino)-5-((4-hydroxybenzyl)amino)-1H-pyrazole-4-carboxamide], for which the melting point lay in the range of 189 to 194 °C. Besides, the inhibition at 1 µM in data set [1] was not below 50%.
`CCOC(=O)c1cccc(Nc2n[nH]c(NCc3ccc(O)cc3)c2C(N)=O)c1` [Compound D67, ethyl 3-((4-carbamoyl-5-((4-hydroxybenzyl)amino)-1H-pyrazol-3-yl)amino)benzoate] displayed a melting point of 132 to 136 °C. The same compound gave an inhibition at 1 µM in data set [1] not below 50%.
On the same counts, the results for `CCc1cccc(Nc2n[nH]c(NCc3ccc(O)cc3)c2C(N)=O)c1` [Compound D68, 3-((3-ethylphenyl)amino)-5-((4-hydroxybenzyl)amino)-1H-pyrazole-4-carboxamide] are 208 to 212 °C and not below 50%.
`COc1ccc(CNc2[nH]nc(Nc3cccc(Cl)c3)c2C(N)=O)c(OC)c1OC` [Compound D69]: the melting point was in the range of 196 to 200 °C. This compound showed an inhibition at 1 µM in data set [1] of 5 to 20%.
As for `COc1ccc(CNc2[nH]nc(Nc3cccc(Cl)c3)c2C(N)=O)c(C)c1` [Compound D73], the melting point lay in the range of 195 to 199 °C. In data set [1], this compound registered an inhibition at 1 µM of 20 to 50%.
The compound `NC(=O)c1c(Nc2ccc(N3CCOCC3)c(Cl)c2)n[nH]c1NCc1ccc(O)cc1` [Compound D75, 3-((3-chloro-4-morpholinophenyl)amino)-5-((4-hydroxybenzyl)amino)-1H-pyrazole-4-carboxamide] registered a melting point of 162 to 168 °C. Further, the inhibition at 1 µM in data set [1] was not below 50%.
Take `NC(=O)c1c(Nc2ccc3[nH]ncc3c2)n[nH]c1NCc1ccc(O)cc1` [Compound D76, 3-((1H-indazol-5-yl)amino)-5-((4-hydroxybenzyl)amino)-1H-pyrazole-4-carboxamide]: the melting point was 250 to 260 °C. In data set [1], the inhibition at 1 µM was not below 50%.
On the same counts, the results for `CC(C)N1CCN(c2ccc(Nc3n[nH]c(NCc4ccc(O)cc4)c3C(N)=O)cc2)CC1` [Compound D82, 5-((4-hydroxybenzyl)amino)-3-((4-(4-isopropylpiperazin-1-yl)phenyl)amino)-1H-pyrazole-4-carboxamide] are 210 to 220 °C and not below 50%.
The matching figures for `NC(=O)c1c(Nc2ccc(Cl)nc2)n[nH]c1NCc1ccc(O)cc1` [Compound D90, 3-((6-chloropyridin-3-yl)amino)-5-((4-hydroxybenzyl)amino)-1H-pyrazole-4-carboxamide]: 221 to 225 °C and not below 50%.
The matching figures for `NC(=O)c1c(Nc2ccc(C(F)(F)F)nc2)n[nH]c1NCc1ccc(O)cc1` [Compound D91]: 259 to 265 °C and not below 50%.
`COc1ccc(C(C)C)cc1CNc1[nH]nc(Nc2cccc(Cl)c2)c1C(N)=O` [Compound D94] came in with a melting point of 184 to 194 °C. Further, the inhibition at 1 µM in data set [1] was 20 to 50%.
In turn, `NC(=O)c1c(Nc2cccc(Cl)c2)n[nH]c1NCc1cccs1` [Compound D95, 3-((3-chlorophenyl)amino)-5-((thiophen-2-ylmethyl)amino)-1H-pyrazole-4-carboxamide] came in with a melting point of 222 to 227 °C. In data set [1], the inhibition at 1 µM was not above 5%.
The matching figures for `NC(=O)c1c(Nc2cccc(Cl)c2)n[nH]c1NCc1ccco1` [Compound D96, 3-((3-chlorophenyl)amino)-5-((furan-2-ylmethyl)amino)-1H-pyrazole-4-carboxamide]: 214 to 220 °C and 20 to 50%.
The matching figures for `NC(=O)c1c(Nc2cccc(Cl)c2)n[nH]c1NCc1ccoc1` [Compound D97]: 219 to 221 °C and 5 to 20%.
`Cc1cn(-c2ccc(Nc3n[nH]c(NCc4ccc(O)cc4)c3C(N)=O)cc2)cn1` [Compound D98, 5-((4-hydroxybenzyl)amino)-3-((4-(4-methyl-1H-imidazol-1-yl)phenyl)amino)-1H-pyrazole-4-carboxamide] registered a melting point of 257 to 260 °C. The compound also showed an inhibition at 1 µM in data set [1] not below 50%.
For the compound `NC(=O)c1c(Nc2ccc(N3CCOC(=O)C3)cc2)n[nH]c1NCc1ccc(O)cc1` [Compound D99, 5-((4-hydroxybenzyl)amino)-3-((4-(2-oxomorpholino)phenyl)amino)-1H-pyrazole-4-carboxamide], the melting point is 194 to 197 °C. Also, in data set [1], the inhibition at 1 µM is not below 50%.
`NC(=O)c1c(Nc2ccc(N3CCOCC3)c(F)c2)n[nH]c1NCc1ccc(O)cc1` [Compound D100] had a melting point of 208 to 211 °C. Besides, the inhibition at 1 µM in data set [1] was not below 50%.
On the same counts, the results for `NC(=O)c1c(Nc2ccc(N)cc2)n[nH]c1NCc1ccc(O)cc1` [Compound D101, 3-((4-aminophenyl)amino)-5-((4-hydroxybenzyl)amino)-1H-pyrazole-4-carboxamide] are 190 to 193 °C and not below 50%.
